Measurements taken from ChEMBL document CHEMBL2331426, “A formyl peptide substituted with a conformationally constrained phenylalanine residue evokes a selective immune response in human neutrophils” (Bioorg Med Chem, 2013).
The source made the active and inactive calls. The calls are words filed in the database; no cut-off is given here.

Tests used:
[1] = target: T1, fMet-Leu-Phe receptor 1/2 (Homo sapiens) (UniProt P21462+P25090); test: Agonist activity at FPR1/FPR2 receptor in human neutrophils assessed as increase in intracellular calcium concentration at 0.1 uM by Fura-2-based spectrofluorophotometric analysis; type: functional, cell-based
[2] = target: T2, fMet-Leu-Phe receptor 1/2 (Homo sapiens, UniProt P21462+P25090); test: Agonist activity at FPR1/FPR2 receptor in human neutrophils assessed as induction of superoxide radical generation by spectrophotometric analysis
T2 sequence (P21462 whole entry): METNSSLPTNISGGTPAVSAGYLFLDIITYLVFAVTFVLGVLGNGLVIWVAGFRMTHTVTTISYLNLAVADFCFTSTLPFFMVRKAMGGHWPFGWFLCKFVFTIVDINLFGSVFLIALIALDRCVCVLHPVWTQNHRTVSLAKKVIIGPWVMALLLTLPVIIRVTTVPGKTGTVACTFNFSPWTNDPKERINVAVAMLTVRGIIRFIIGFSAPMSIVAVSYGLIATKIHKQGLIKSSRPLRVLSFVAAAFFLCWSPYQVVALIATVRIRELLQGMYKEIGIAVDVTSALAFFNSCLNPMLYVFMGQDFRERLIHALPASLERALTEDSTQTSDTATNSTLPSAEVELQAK
T2 sequence (P25090 whole entry): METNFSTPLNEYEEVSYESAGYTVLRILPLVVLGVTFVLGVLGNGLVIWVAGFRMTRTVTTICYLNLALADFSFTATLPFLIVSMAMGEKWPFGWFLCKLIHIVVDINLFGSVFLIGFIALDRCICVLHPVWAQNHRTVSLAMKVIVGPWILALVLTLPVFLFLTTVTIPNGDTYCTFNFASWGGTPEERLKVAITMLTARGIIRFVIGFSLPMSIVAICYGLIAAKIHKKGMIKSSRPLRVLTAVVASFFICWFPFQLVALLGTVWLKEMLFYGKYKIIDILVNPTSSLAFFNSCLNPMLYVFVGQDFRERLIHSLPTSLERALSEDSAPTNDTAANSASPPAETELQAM

[3] = target: T2, fMet-Leu-Phe receptor 1/2; test: Agonist activity at FPR1/FPR2 receptor in human neutrophils assessed as induction of chemotaxis after 60 mins
[4] = target: T1, fMet-Leu-Phe receptor 1/2 (Homo sapiens); test: Agonist activity at FPR1/FPR2 receptor in human neutrophils assessed as induction of superoxide radical generation at 1 uM by spectrophotometric analysis
[5] = target: T3, N-formyl peptide receptor 2 (Homo sapiens) (UniProt P25090); test: Binding affinity to FPR2 receptor in human neutrophils assessed as induction of intracellular calcium mobilization at 1 uM in presence of MMK-1; type: functional, cell-based
T3 sequence (whole entry): T2 sequence (P25090 whole entry)

[6] = target: T1, fMet-Leu-Phe receptor 1/2 (Homo sapiens); test: Agonist activity at FPR1/FPR2 receptor in human neutrophils assessed as stimulation of fMLP-OMe-induced superoxide radical generation at 0.1 uM incubated for 5 mins followed by fMLP-OMe induction by spectrophotometric analysis relative to control
[7] = target: T1, fMet-Leu-Phe receptor 1/2 (Homo sapiens); test: Agonist activity at FPR1/FPR2 receptor in human neutrophils assessed as induction of chemotaxis after 60 mins relative to fMLP-OMe
[8] = target: T1, fMet-Leu-Phe receptor 1/2 (Homo sapiens); test: Agonist activity at FPR1/FPR2 receptor in human neutrophils assessed as induction of superoxide radical generation at 1 uM by […] spectrophotometric analysis relative to fMLP-OMe
[9] = target: T1, fMet-Leu-Phe receptor 1/2 (Homo sapiens); test: Agonist activity at FPR1/FPR2 receptor in human neutrophils assessed as increase in intracellular calcium concentration by spectrofluorophotometric analysis; type: functional, cell-based

Activity [1] | EC50 [2] [nM] | EC50 [3] [nM] | Activity [4] [%] | Activity [5] | Activity [6] [%] | Activity [7] [%] | Activity [8] [%] | Activity [9] | Compound
Active | 16 | 2.5 |  |  |  |  |  |  | COC(=O)[C@H](Cc1ccccc1)NC(=O)[C@H](CC(C)C)NC(=O)[C@H](CCSC)NC=O
Active |  | 4.7 | 10 | inactive | 114 | 53 |  |  | COC(=O)[C@@]1(NC(=O)[C@H](CC(C)C)NC(=O)[C@H](CCSC)NC=O)C[C@H]1c1ccccc1

More lines, now with the values behind:

Compound | Activity [1] | EC50 [2] [nM] | EC50 [3] [nM] | Activity [4] [%] | Activity [5] | Activity [6] [%] | Activity [7] [%] | Activity [8] [%] | Activity [9]
COC(=O)[C@]1(NC(=O)[C@H](CC(C)C)NC(=O)[C@H](CCSC)NC=O)C[C@H]1c1ccccc1 | Active |  | 21 | 10 | Active | 175 | 12 | 45 | 
COC(=O)[C@]1(NC(=O)[C@H](CC(C)C)NC(=O)[C@H](CCSC)NC=O)C[C@@H]1c1ccccc1 | Active |  | 14 | 10 | inactive | 114 | 18 |  | 
CSCC[C@H](NC=O)C(=O)N[C@@H](CC(C)C)C(=O)N[C@]1(C(=O)O)C[C@@H]1c1ccccc1 | Active | 250 | 9.1 |  | Active | 200 | 26 | 6.4 | 
CSCC[C@H](NC(=O)[C@H](Cc1ccc(O)cc1)NC(=O)[C@H](CCCCN)NC(=O)[C@@H](N)Cc1c[nH]c2ccccc12)C(=O)N[C@H](C(=O)N[C@H](CCSC)C(=O)O)C(C)C |  |  |  |  |  |  |  |  | Active
